Test results published in ChEMBL document CHEMBL4038307, “Influence of a Basic Side Chain on the Properties of Hypoxia-Selective Nitro Analogues of the Duocarmycins: Demonstration of Substantial Anticancer Activity in Combination with Irradiation or Chemotherapy” (J Med Chem, 2017).
Active and inactive are the calls of the source. The calls are words filed in the database; no cut-off is given here.

Columns and labels:
[1] = tested on: NCI-H460; assay: Antitumor activity against human H460 cells xenografted in CD-1 Foxn1 nude mouse assessed as reduction in colony forming cells under hypoxic condition at 75 umol/kg, iv treated 5 mins after gamma irradiation measured after 18 hrs by excision assay; assay type: functional, organism-based
[2] = tested on: SiHa; assay: Antitumor activity against human SiHa cells xenografted in CD-1 Foxn1 nude mouse assessed as log reduction in colony forming cells under hypoxic condition at 42 umol/kg, iv treated 5 mins after gamma irradiation measured after 18 hrs by excision assay; assay type: functional
[3] = tested on: HT-29; assay: Cytotoxicity against human HT-29 cells incubated for 4 hrs under hypoxic condition measured after 5 days by SRB assay; assay type: functional, cell-based
[4] = tested on: HT-29; assay: Cytotoxicity against human HT-29 cells incubated for 4 hrs under oxic condition measured after 5 days by SRB assay; assay type: functional, cell-based
[5] = tested on: HT-29; assay: Ratio of IC50 for human HT-29 cells under oxic condition to IC50 for human HT-29 cells under hypoxic condition; assay type: functional
[6] = tested on: SiHa; assay: Cytotoxicity against human SiHa cells incubated for 4 hrs under hypoxic condition measured after 5 days by SRB assay; assay type: functional, cell-based
[7] = tested on: SiHa; assay: Cytotoxicity against human SiHa cells incubated for 4 hrs under oxic condition measured after 5 days by SRB assay; assay type: functional, cell-based
[8] = tested on: SiHa; assay: Ratio of IC50 for human SiHa cells under oxic condition to IC50 for human SiHa cells under hypoxic condition; assay type: functional
[9] = tested on: NCI-H1299; assay: Antitumor activity against human H1299 cells xenografted in CD-1 Foxn1 nude mouse assessed as reduction in colony forming cells at 75 umol/kg, iv treated 5 mins after gamma irradiation measured after 18 hrs by excision assay; assay type: functional, organism-based
[10] = tested on: HCT-116; assay: Antitumor activity against human HCT116 cells xenografted in CD-1 Foxn1 nude mouse assessed as reduction in colony forming cells at 56 umol/kg, iv treated 5 mins after gamma irradiation measured after 18 hrs by excision assay; assay type: functional, organism-based
[11] = tested on: CWR22R; assay: Antitumor activity against human 22Rv1 cells xenografted in CD-1 Foxn1 nude mouse assessed as reduction in colony forming cells under hypoxic condition at 30 umol/kg, iv treated 5 mins after gamma irradiation measured after 18 hrs by excision assay; assay type: functional, organism-based
[12] = tested on: NCI-H460; assay: Antitumor activity against human H460 cells xenografted in CD-1 Foxn1 nude mouse assessed as log reduction in colony forming cells under hypoxic condition at 56 umol/kg, iv treated 5 mins after gamma irradiation measured after 18 hrs by excision assay; assay type: functional
[13] = tested on: Mus musculus; assay: Toxicity in CD-1 Foxn1 nude mouse xenografted with human SiHa cells assessed as death at 75 umol/kg, iv; conditions: in vivo
[14] = tested on: Mus musculus; assay: Toxicity in CD-1 Foxn1 nude mouse xenografted with human H460 cells assessed as death at 75 umol/kg, iv; conditions: in vivo
[15] = tested on: Mus musculus; assay: Toxicity in CD-1 Foxn1 nude mouse xenografted with human SiHa cells assessed as death at 13 umol/kg, iv; conditions: in vivo
[16] = tested on: Mus musculus; assay: Toxicity in CD-1 Foxn1 nude mouse xenografted with human H460 cells assessed as death at 13 umol/kg, iv; conditions: in vivo
[17] = tested on: NCI-H460; assay: Antitumor activity against human H460 cells xenografted in CD-1 Foxn1 nude mouse assessed as reduction in colony forming cells under hypoxic condition at 23.7 umol/kg, iv treated 5 mins after gamma irradiation measured after 18 hrs by excision assay; assay type: functional, organism-based
[18] = tested on: SiHa; assay: Antitumor activity against human SiHa cells xenografted in CD-1 Foxn1 nude mouse assessed as reduction in colony forming cells under hypoxic condition at 23.7 umol/kg, iv treated 5 mins after gamma irradiation measured after 18 hrs by excision assay; assay type: functional, organism-based
[19] = tested on: NCI-H460; assay: Antitumor activity against human H460 cells xenografted in CD-1 Foxn1 nude mouse assessed as reduction in colony forming cells under hypoxic condition at 13.3 umol/kg, iv treated 5 mins after gamma irradiation measured after 18 hrs by excision assay; assay type: functional, organism-based

| Structure (SMILES) | Activity [3] | Activity [4] | Ratio IC50 [5] | Activity [6] | Activity [7] | Ratio IC50 [8] | further results |
| --- | --- | --- | --- | --- | --- | --- | --- |
| O=C(CCN1CCOCC1)N1CC(CCl)c2c1cc([N+](=O)[O-])c1cc(S(=O)(=O)NCCOP(=O)(O)O)ccc21 (stereo not given) |  |  |  |  |  |  | Activity [1]: inactive; Activity [2]: Active |
| COc1cc2cc(C(=O)N3CC(CCl)c4c3cc(N)c3cc(S(=O)(=O)NCCO)ccc43)[nH]c2c(OC)c1OC (stereo not given) | Active | Active | 1 | Active | Active | 1 |  |
| CN(C)CC(=O)Nc1ccc2[nH]c(C(=O)N3CC(CCl)c4c3cc(N)c3cc(S(=O)(=O)NCCO)ccc43)cc2c1 (stereo not given) | Active | Active | 1 | Active | Active | 1 |  |
| CN(C)Cc1ccc2[nH]c(C(=O)N3CC(CCl)c4c3cc([N+](=O)[O-])c3cc(S(=O)(=O)NCCO)ccc43)cc2c1 (stereo not given) |  |  | 27 - 68 |  |  | 27 - 68 |  |
| Nc1cc2c(c3ccc(S(=O)(=O)NCCO)cc13)C(CCl)CN2C(=O)/C=C/c1ccc(OCCCN2CCOCC2)cc1 (stereo not given) | Active | Active | 1 | Active | Active | 1 |  |
| CN(C)CCOc1ccc2[nH]c(C(=O)N3CC(CCl)c4c3cc(N)c3cc(S(=O)(=O)NCCO)ccc43)cc2c1 (stereo not given) | Active | Active | 1 | Active | Active | 1 |  |
| O=C(/C=C/c1ccc(OCCCN2CCOCC2)cc1)N1CC(CCl)c2c1cc([N+](=O)[O-])c1cc(S(=O)(=O)NCCOP(=O)(O)O)ccc21 (stereo not given) |  |  |  |  |  |  | Activity [1]: Active; Activity [2]: Active |
| CCN(CC)CCOc1ccc2[nH]c(C(=O)N3CC(CCl)c4c3cc([N+](=O)[O-])c3cc(S(=O)(=O)NCCO)ccc43)cc2c1 (stereo not given) |  |  | 27 - 68 |  |  | 27 - 68 |  |
| CN(C)CCCOc1ccc2[nH]c(C(=O)N3CC(CCl)c4c3cc([N+](=O)[O-])c3cc(S(=O)(=O)NCCO)ccc43)cc2c1 (stereo not given) |  |  | 27 - 68 |  |  | 27 - 68 |  |
| CN(C)CCCOc1ccc2[nH]c(C(=O)N3CC(CCl)c4c3cc([N+](=O)[O-])c3cc(S(=O)(=O)NCCOP(=O)(O)O)ccc43)cc2c1 (stereo not given) |  |  |  |  |  |  | Activity [9]: Active; Activity [10]: Active; Activity [11]: Active |
| O=C(NCCOP(=O)(O)O)c1ccc2c3c(cc([N+](=O)[O-])c2c1)N(C(=O)c1cc2cc(OCCN4CCOCC4)ccc2[nH]1)CC3CCl (stereo not given) |  |  |  |  |  |  | Activity [2]: >1 |
| O=C(/C=C/c1ccc(OCCN2CCOCC2)cc1)N1CC(CCl)c2c1cc([N+](=O)[O-])c1cc(S(=O)(=O)NCCOP(=O)(O)O)ccc21 (stereo not given) |  |  |  |  |  |  | Activity [1]: Active; Activity [12]: >1; Activity [2]: Active |
| CN(C)CC(=O)Nc1ccc2[nH]c(C(=O)N3CC(CCl)c4c3cc([N+](=O)[O-])c3cc(S(=O)(=O)NCCOP(=O)(O)O)ccc43)cc2c1 (stereo not given) |  |  |  |  |  |  | Activity [13]: Non-Toxic; Activity [14]: Non-Toxic |
| O=C(c1cc2cc(OCCCN3CCOCC3)ccc2[nH]1)N1CC(CCl)c2c1cc([N+](=O)[O-])c1cc(S(=O)(=O)NCCOP(=O)(O)O)ccc21 (stereo not given) |  |  |  |  |  |  | Activity [9]: Active; Activity [10]: Active; Activity [1]: Active; Activity [11]: Active; Activity [2]: >1 |
| CN(C)CCCOc1ccc2[nH]c(C(=O)N3CC(CCl)c4c3cc(N)c3cc(S(=O)(=O)NCCO)ccc43)cc2c1 (stereo not given) | Active | Active | 1 | Active | Active | 1 |  |
| Nc1cc2c(c3ccc(S(=O)(=O)NCCO)cc13)C(CCl)CN2C(=O)c1cc2cc(OCCCN3CCOCC3)ccc2[nH]1 (stereo not given) | Active | Active | 1 | Active | Active | 1 |  |
| Nc1cc2c(c3ccc(S(=O)(=O)NCCO)cc13)C(CCl)CN2C(=O)c1cc2cc(OCCN3CCOCC3)ccc2[nH]1 (stereo not given) | Active | Active | 1 | Active | Active | 1 |  |

| Structure (SMILES) | Activity [3] | Activity [4] | Ratio IC50 [5] | Activity [6] | Activity [7] | Ratio IC50 [8] | further results |
| --- | --- | --- | --- | --- | --- | --- | --- |
| CCN(CC)CCOc1ccc2[nH]c(C(=O)N3CC(CCl)c4c3cc(N)c3cc(S(=O)(=O)NCCO)ccc43)cc2c1 (stereo not given) | Active | Active | 1 | Active | Active | 1 |  |
| CN(C)CCC(=O)Nc1ccc2[nH]c(C(=O)N3CC(CCl)c4c3cc([N+](=O)[O-])c3cc(S(=O)(=O)NCCOP(=O)(O)O)ccc43)cc2c1 (stereo not given) |  |  |  |  |  |  | Activity [15]: Toxic; Activity [16]: Toxic |
| CN(C)CCOc1ccc2[nH]c(C(=O)N3CC(CCl)c4c3cc([N+](=O)[O-])c3cc(C(=O)NCCOP(=O)(O)O)ccc43)cc2c1 (stereo not given) |  |  |  |  |  |  | Activity [9]: Active; Activity [10]: Active; Activity [11]: Active; Activity [2]: Active |
| CCN(CC)CCOc1ccc2[nH]c(C(=O)N3CC(CCl)c4c3cc([N+](=O)[O-])c3cc(S(=O)(=O)NCCOP(=O)(O)O)ccc43)cc2c1 (stereo not given) |  |  |  |  |  |  | Activity [17]: inactive; Activity [18]: Active |
| Nc1cc2c(c3ccc(S(=O)(=O)NCCO)cc13)C(CCl)CN2C(=O)c1ccc(OCCN2CCOCC2)cc1 (stereo not given) | Active | Active | 1 | Active | Active | 1 |  |
| O=C(c1cc2cc(OCCN3CCOCC3)ccc2[nH]1)N1CC(CCl)c2c1cc([N+](=O)[O-])c1cc(S(=O)(=O)NCCO)ccc21 (stereo not given) | inactive |  |  | inactive |  |  |  |
| Nc1cc2c(c3ccc(S(=O)(=O)NCCO)cc13)C(CCl)CN2C(=O)/C=C/c1ccc(OCCN2CCOCC2)cc1 (stereo not given) | Active | Active | 1 | Active | Active | 1 |  |
| Nc1cc2c(c3ccc(S(=O)(=O)NCCO)cc13)C(CCl)CN2C(=O)CCN1CCOCC1 (stereo not given) | Active | Active | 1 | Active | Active | 1 |  |
| CN(C)CCC(=O)Nc1ccc2[nH]c(C(=O)N3CC(CCl)c4c3cc(N)c3cc(S(=O)(=O)NCCO)ccc43)cc2c1 (stereo not given) | Active | Active | 1 | Active | Active | 1 |  |
| O=C(NCCOP(=O)(O)O)c1ccc2c3c(cc([N+](=O)[O-])c2c1)N(C(=O)/C=C/c1ccc(OCCN2CCOCC2)cc1)CC3CCl (stereo not given) |  |  |  |  |  |  | Activity [1]: Active; Activity [2]: Active |
| CN(C)CCOc1ccc2[nH]c(C(=O)N3CC(CCl)c4c3cc([N+](=O)[O-])c3cc(S(=O)(=O)NCCO)ccc43)cc2c1 (stereo not given) | Active | Active |  |  |  |  |  |
| CN(C)Cc1ccc2[nH]c(C(=O)N3CC(CCl)c4c3cc([N+](=O)[O-])c3cc(S(=O)(=O)NCCOP(=O)(O)O)ccc43)cc2c1 (stereo not given) |  |  |  |  |  |  | Activity [1]: inactive; Activity [2]: Active |
| CN(C)c1ccc2[nH]c(C(=O)N3CC(CCl)c4c3cc(N)c3cc(S(=O)(=O)NCCO)ccc43)cc2c1 (stereo not given) | Active | Active | 1 | Active | Active | 1 |  |
| O=C(c1ccc(OCCN2CCOCC2)cc1)N1CC(CCl)c2c1cc([N+](=O)[O-])c1cc(S(=O)(=O)NCCOP(=O)(O)O)ccc21 (stereo not given) |  |  |  |  |  |  | Activity [19]: inactive; Activity [2]: Active |
| CN(C)CCOc1ccc2[nH]c(C(=O)N3CC(CCl)c4c3cc([N+](=O)[O-])c3cc(C(=O)NCCO)ccc43)cc2c1 (stereo not given) | Active | Active |  |  |  |  |  |
| O=C(c1cc2cc(OCCCN3CCOCC3)ccc2[nH]1)N1CC(CCl)c2c1cc([N+](=O)[O-])c1cc(S(=O)(=O)NCCO)ccc21 (stereo not given) | inactive |  |  | inactive |  |  |  |
| CN(C)Cc1ccc2[nH]c(C(=O)N3CC(CCl)c4c3cc(N)c3cc(S(=O)(=O)NCCO)ccc43)cc2c1 (stereo not given) | Active | Active | 1 | Active | Active | 1 |  |
